Data as given in PMC5595280, “Cytotoxicity and anti-tumor effects of new ruthenium complexes on triple negative breast cancer cells” (PLoS ONE, 2017).

How the values were obtained:
[1] = test system: MDA-MB-231 cells; test: Boyden chamber migration assay; assay type: cell-based, human; details: 5, 10 and 20 μM, 22 h
Description: Cell migration was also assessed in a chemotactic assay using 24 well Boyden chambers (BD Biosciences) as described earlier. MDA-MB-231 (0.5 x 10^5/350 μL) cells, incubated or not with complex (4) 5, 10 and 20 μM were seeded on the upper chamber in a DMEM incomplete medium (without FBS). In the lower chamber DMEM medium supplemented with 10% FBS was added. Cells were allowed to migrate for 22 h at 37°C and 5% CO2 in a humidified environment. Then, cells that remained in the upper chamber were removed using a cotton swab. Cells that migrated to the other side of the upper chamber membrane were fixed with methanol and stained with 1% toluidine blue. Migrated cells were quantified by manual counting and inhibition ratio was expressed as % of control.

[2] = test system: MDA-MB-231 cells; test: Colony formation (clonogenic) assay; assay type: cell-based, human; details: 3 h treatment, 10 days
Description: Exponentially growing MDA-MB-231 cells were harvested, counted and seeded (300 cells/plate) into Petri dishes. Cells were allowed to grow at 37°C in 5% CO2 overnight and then, treated with different concentrations of complex (4) for 3 h. After this time, the medium was changed to a fresh medium without any complex. After incubation for additional 10 days the cells were rinsed with PBS, fixed with methanol and acid acetic 3:1 for 5 min and stained with methanol and crystal violet 5% for 15min. Relative survival was calculated from the number of single cells that formed colonies of >50 cells on the tenth day.

[3] = test system: MDA-MB-231 cells; test: Matrigel transwell invasion assay; assay type: cell-based, human; details: 20 μM, 22 h
Description: The effect of different concentrations of complex (4) 5, 10 μM and 20 μM on MDA-MB-231 tumor cell invasiveness was determined by the ability to transmigrate through a layer of matrigel in a transwell chamber (BD Biosciences) as described earlier. Wells were rehydrated with the addition of 1mL of warm (37°C) incomplete culture medium for 2 h. MDA-MB-231 cells (0.5 x 10^5/350 μL) were loaded on the top of matrigel in a DMEM incomplete medium. DMEM medium supplemented with 10% FBS was placed on the bottom chamber of the transwell units. Twenty-two hours later, cells that remained in the upper chamber were removed using a cotton swab and invasive cells were fixed with methanol and stained with 1% toluidine blue. The invaded cells were quantified by manual counting and inhibition ratio was expressed as % of control.

[4] = test system: MCF-10A cells; test: Cell morphology (inverted microscope); assay type: cell-based, human; details: 50 μM, 24 h
Description: (§1) Exponentially growing MDA-MB-231, MCF-7 or MCF-10A cells were harvested, counted and seeded (1x10^5 cells/mL) and plated on sterile 12-well plates for 24 h. Cells were allowed to grow at 37°C in 5% CO2 overnight and then, treated or not (control) with different concentrations of the complexes (1–4) for 2 and 24 h. Cell morphology was examined under an inverted microscope (Nikon, T5100) with amplification of 100×.
(§2) In this work the cytotoxicity of the complexes was evaluated against the MDA-MB-231, MCF-7 and MCF-10A cells by morphology, clonogenic and MTT assays (Fig 2, Table 1). To investigate the effects on cell morphology, the complexes were incubated with cells at concentrations of 25 and 50 μM for 24 h.

[5] = test system: MDA-MB-231 cells; test: Cell morphology (inverted microscope); assay type: cell-based, human; details: MDA-MB-231, 50 μM, 24 h
Description: as §1, §2

[6] = test system: pBR322 plasmid DNA; test: Agarose gel electrophoresis of plasmid DNA; assay type: binding; details: Ri 0.50, 18 h, 37°C
Description: Ten microliters of pBR322 plasmid DNA in a Tris-HCl buffer were incubated at 37°C for 18 h with molar ratios between 0.12 and 0.5. After incubation, 5 μL of each sample was separated by electrophoresis in a 1% agarose gel for 45 min at 100V using a Tris borate–EDTA buffer (TBE) and stained with ethidium bromide ([…] ethidium bromide per 40 mL agarose gel mixture). Samples of DNA with DMSO were used as controls. The DNA bands were visualized as an image using a UV light transilluminator (ChemiDoc MP, BioRad Laboratories).
The influence of the compounds on the tertiary structure of DNA was determined by their ability to modify the electrophoretic mobility of forms of pBR322 plasmid DNA (Fig 6C). Agarose gel electrophoresis was performed using pBR322 plasmid DNA in the absence and presence of the complexes. […] In Ri 0.12 and 0.25 complexes (1–3) show the corresponding open circular, linear and super coiled form. […] This means that the degree of super helicity of the DNA molecules has been altered, in the same way as that described previously for other coordination platinum(II) and palladium (II) compounds containing 7-azaindolyl ligand [36].

[7] = test system: MDA-MB-231 cells; test: DAPI staining for nuclear fragmentation; assay type: cell-based, human; details: 60 and 70 μM, 3 h
Description: The apoptotic activity of the complex (4) was analyzed by DAPI staining and flow cytometry with PE-Annexin-V Apoptosis Detection Kit (BD Biosciences). For DAPI staining, MDA-MB-231 cells (2.0 x 10^4/100 μL) were seeded in 96-wells plates and maintained at 37°C in a humidified incubator with 5% CO2 for 24 h. In the next day, cells were treated with 60 and 70 μM of complex (4) and incubated for 3 h. Next, cells were washed with PBS, fixed with methanol and stained with DAPI 1 μg/mL (Life Technologies, Carlsbad, CA) in DMEM medium without FBS for 10 min. Fluorescence was captured in automated microscope ImageXpress® Micro XLS System (Molecular Devices).

[8] = test system: MCF-10A cells; test: Apoptosis by flow cytometry (PE-Annexin-V / 7AAD); assay type: cell-based, human; details: 20 μM, 3 h
Description: (§3) MDA-MB-231 and MCF-10A cells (1.0 x 10^5/mL) were seeded in 12-well plates in a complete DMEM medium and incubated for 24 h. After this period the medium was removed and cells were incubated or not (control) with different concentrations of complex (4), for 3 h at 37°C and 5% CO2. After treatment the plate was centrifuged at 2000 rpm for 5 min at 4°C, washed with PBS and resuspended in 400 μL of binding buffer from the kit. Cells were incubated with 10 μL of 7AAD and 10 μL of PE-Annexin-V for 15 min protected from light. After the incubation period the supernatant was removed and 400 μL of binding buffer were added to the wells. Cells were then removed from the wells with the aid of a scraper and transferred to flow cytometry tubes. The reading was performed in Accuri C6 flow cytometer (BD Biosciences) and fluorescence emitted by each dye was quantified using CellQuest software (BD Biosciences).

[9] = test system: MDA-MB-231 cells; test: Apoptosis by flow cytometry (PE-Annexin-V / 7AAD); assay type: cell-based, human; details: MDA-MB-231, 20 μM, 3 h
Description: as §3

CC(=O)[O-].F[P-](F)(F)(F)(F)F.[Ru+2].c1ccc(-c2ccccn2)nc1.c1ccc(P(CCCCP(c2ccccc2)c2ccccc2)c2ccccc2)cc1 [Complex (4), [Ru(CH3CO2)(dppb)(bipy)]PF6]
effect on cell migration (Boyden chamber) [1]: inhibited MDA-MB-231 cell migration in a concentration dependent fashion | effect on colony formation ([2]; 20 μM): completely abolished the capacity of breast tumor cells to form colonies | effect on colony number and size ([2]; 2.5, 5, 10 and 20 μM): significantly inhibited the colony number and size | inhibition of invasion compared to control [3]: approximately 80% | effect on cell morphology / cell density [4]: profoundly altered their morphology | effect on cell morphology [5]: profoundly altered their morphology | electrophoretic mobility of super coiled pBR322 band [6]: increased the electrophoretic mobility | apoptotic nuclei (DAPI) [7]: more apoptotic nucleic | cells suffering apoptosis [8]: 14.9% | cells suffering apoptosis [9]: 74.4%
